# Several values for one entry are separate records, joined by “and”; a condition that tells them apart may be missing. Equal values may be shown once. Read-outs that look alike come from different tables or passages of the source.
# What was measured:
# [1] = test system: A549 cells; test: Inhibition of cell growth and potentiation of temozolomide/topotecan, A549; assay type: cell-based; conditions: for GI50: Homo sapiens, 120 h, 5-day continuous exposure
# [2] = test system: LoVo cells; test: Inhibition of cell growth and potentiation of temozolomide/topotecan, LoVo; assay type: cell-based
# [3] = test system: PARP; test: Inhibition of cellular NAD consumption in mouse peripheral blood lymphocytes after PARP activation; assay type: cell-based; conditions: PARP activated by MNNG, hydrogen peroxide or gamma irradiation, data not shown
# Text: After DNA damage, cellular NAD is rapidly incorporated into poly-ADP-ribose polymer.
# [4] = IV pharmacokinetics in dogs; conditions: Beagle, in vivo, dog
# [5] = human, in vivo
# Method: This is an open-label, multi-center, dose-escalation study being conducted in 2 parts. Part 1 of the study was open to patients with advanced tumors.
# The PK analysis was conducted on preliminary interim data using nominal collection times.
# [6] = A549, compound 0.4 μM (Table 6)
# [7] = 15 mg/kg single IV dose as glucuronate salt
smiles,measurement,setting,value
"CNCc1ccc(-c2[nH]c3cc(F)cc4c3c2CCNC4=O)cc1 [compound of formula 1, 8-fluoro-2-{4-[(methylamino)methyl]phenyl}-1,3,4,5-tetrahydro-6H-azepino[5,4,3-cd]indol-6-one]",Topotecan PF50,"[1]; A549, +0.4 μM compound of formula 1",1.6
same,Temozolomide PF50,"[1]; A549, GI50 temozolomide alone/GI50 temozolomide+0.4 μM compound of formula 1",3.5
same,PF50 (Temozolomide),"[1]; A549, compound 0.0005 μM",1
same,PF50 (Topotecan),"[1]; A549, compound 0.0005 μM",1.4
same,PF50 (Topotecan),"[1]; A549, compound 0.005 μM",1.8
same,PF50 (Temozolomide),"[1]; A549, compound 0.005 μM (5 nM)",1.3
same,PF50 (Topotecan),"[1]; A549, compound 0.05 μM",2.1
same,PF50 (Temozolomide),"[1]; A549, compound 0.1 μM",2.6
same,PF50 (Topotecan),"[1]; A549, compound 0.1 μM",2.2
same,PF50 (Temozolomide),[1]; [6],3.5
same,PF50 (Topotecan),[1]; [6],2.4
same,GI50,"[1]; A549, LoVo and SW620 cell lines, read-out: GI50 values, range over cell lines",7 to 12 µM
same,GI50,"[1]; A549, read-out: GI50",7 µM
same,Temozolomide PF50,[2]; +0.4 μM compound of formula 1,8 and 8.1
same,Topotecan PF50,[2]; +0.4 μM compound of formula 1,1.6 and 1.7
same,GI50,"[2]; Homo sapiens, 120 h, 5-day continuous exposure",12 µM
same,inhibition of PARP catalytic activity (cellular NAD consumption),[3],inhibits PARP catalytic activity
same,AUC(0-inf),[4]; 15 mg/kg single IV dose (free base) as glucuronate salt,4100 ± 500 ng·h/mL
same,clearance,[4]; [7],61.8 ± 8.2 mL/min/kg
same,half-life,[4]; [7],4.5 ± 1.1 h
same,Vd,"[4]; 15 mg/kg single IV dose as glucuronate salt, read-out: Vss",15.2 ± 2.3 L/kg
"CNCc1ccc(-c2[nH]c3cc(F)cc4c3c2CCNC4=O)cc1.O=P(O)(O)O [Compound I, phosphate salt of 8-fluoro-2-{4-[(methylamino)methyl]phenyl}-1,3,4,5-tetrahydro-6H-azepino[5,4,3-cd]indol-6-one]",mean total body clearance,[5],27 L/h
same,dose proportionality in AUC(0-24) and Cmax,[5]; iv,linear dose proportionality
same,mean terminal half-life,[5]; iv,6.2 to 10.7 h
same,AUC0-24,"[5]; iv, 1 mg/m2",24.2 ng·h/mL
same,AUCinf,"[5]; iv, 1 mg/m2",24.2 ng·h/mL
same,AUC0-24,"[5]; iv, 2 mg/m2",139.0 ng·h/mL
same,AUCinf,"[5]; iv, 2 mg/m2",167.0 ng·h/mL
same,AUC0-24,"[5]; iv, 4 mg/m2",237.3 ng·h/mL
same,AUCinf,"[5]; iv, 4 mg/m2",286.6 ng·h/mL
same,CL,"[5]; iv, 4 mg/m2",26.0 L/h
same,Cmax,"[5]; iv, 4 mg/m2",168.9 ng/mL
same,Vss,"[5]; iv, 4 mg/m2",286.4 L
same,t1/2,"[5]; iv, 4 mg/m2",10.7 h
same,AUC0-24,"[5]; iv, 8 mg/m2",892.4 ng·h/mL
same,AUCinf,"[5]; iv, 8 mg/m2",1118.8 ng·h/mL
same,CL,"[5]; iv, 8 mg/m2",16.9 L/h
same,Cmax,"[5]; iv, 8 mg/m2",456.4 ng/mL
same,Vss,"[5]; iv, 8 mg/m2",151.7 L
same,t1/2,"[5]; iv, 8 mg/m2",10.5 h
same,AUC0-24,"[5]; iv, 12 mg/m2",1017.1 ng·h/mL
same,AUCinf,"[5]; iv, 12 mg/m2",1163.3 ng·h/mL
same,CL,"[5]; iv, 12 mg/m2",23.9 L/h
same,Cmax,"[5]; iv, 12 mg/m2",882.5 ng/mL
same,Vss,"[5]; iv, 12 mg/m2",270.1 L
same,t1/2,"[5]; iv, 12 mg/m2",10.6 h

# From patent US20060074073A1, “Therapeutic combinations comprising poly (ADP-ribose) polymerases inhibitor” (AGOURON PHARMACEUTICALS, INC., priority 2004, published 2006)
